Reference: US7635572B2, “Methods for conducting assays for enzyme activity on protein microarrays” (Life Technologies Corporation, priority 2004, dated 2009)

Molecular target: plurality of kinases (Table 5) (Homo sapiens, UniProt O75716)
Test: Further analysis of a plurality of inhibitors and a plurality of kinases on microarray (Example IX, Table 5);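 also: inhibition of each kinase by the inhibitors is given as a qualitative level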;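 as to Inhibition level, DYRK1A: level 0 none or unclear Level 1 marginal Level 2 substantial inhibition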;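 as to Inhibition level, PRKCI: level 0 none or unclear Level 1 marginal Level 2 substantial inhibition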;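 as to Inhibition level, TLK2: level 0 none or unclear Level 1 marginal Level 2 substantial inhibition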
Format: biochemical
Conditions: plate C3; Genistein <3.7 mM

Chain of plurality of kinases (Table 5) (Homo sapiens, UniProt O75716) (O75716 whole entry): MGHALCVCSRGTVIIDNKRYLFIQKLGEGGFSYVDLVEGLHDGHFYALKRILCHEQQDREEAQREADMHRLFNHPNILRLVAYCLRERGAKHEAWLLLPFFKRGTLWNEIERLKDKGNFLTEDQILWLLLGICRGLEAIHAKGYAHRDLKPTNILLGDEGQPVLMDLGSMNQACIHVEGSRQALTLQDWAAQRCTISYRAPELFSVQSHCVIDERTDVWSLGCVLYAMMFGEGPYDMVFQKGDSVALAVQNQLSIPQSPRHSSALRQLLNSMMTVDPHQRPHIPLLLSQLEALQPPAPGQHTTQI

Row | Compound | Inhibition level, STK16
1 | O=c1c(-c2ccc(O)cc2)coc2cc(O)cc(O)c12 [Genistein] | 0

Same assay, conditions: plate C3; Ro-31-8220 90 uM

Row | Compound | Inhibition level, STK16
2 | Cn1cc(C2=C(c3cn(CCCSC(=N)N)c4ccccc34)C(=O)NC2=O)c2ccccc21 [Ro-31-8220] | 2

Same assay, conditions: plate C3; Staurosporine 21.5 uM

Row | Compound | Inhibition level, STK16
3 | CN[C@@H]1C[C@H]2O[C@@](C)([C@@H]1OC)n1c3ccccc3c3c4c(c5c6ccccc6n2c5c31)C(=O)NC4 [Staurosporine] | 2

Same assay, conditions: plate C3; inhibitor 100 uM

Row | Compound | Inhibition level, STK16
4 | N#C/C(=C/c1ccc(O)c(O)c1)C(=O)NCc1ccccc1 [AG 490] | 0
5 | O=c1c(-c2ccc(O)cc2)coc2cc(O)cc(O)c12 [Genistein] | 0
6 | Cn1cc(C2=C(c3cn(CCCSC(=N)N)c4ccccc34)C(=O)NC2=O)c2ccccc21 [Ro-31-8220] | 1

Molecular target: plurality of kinases (Table 5) (Homo sapiens, UniProt P11362)
Sequence (P11362 22-822): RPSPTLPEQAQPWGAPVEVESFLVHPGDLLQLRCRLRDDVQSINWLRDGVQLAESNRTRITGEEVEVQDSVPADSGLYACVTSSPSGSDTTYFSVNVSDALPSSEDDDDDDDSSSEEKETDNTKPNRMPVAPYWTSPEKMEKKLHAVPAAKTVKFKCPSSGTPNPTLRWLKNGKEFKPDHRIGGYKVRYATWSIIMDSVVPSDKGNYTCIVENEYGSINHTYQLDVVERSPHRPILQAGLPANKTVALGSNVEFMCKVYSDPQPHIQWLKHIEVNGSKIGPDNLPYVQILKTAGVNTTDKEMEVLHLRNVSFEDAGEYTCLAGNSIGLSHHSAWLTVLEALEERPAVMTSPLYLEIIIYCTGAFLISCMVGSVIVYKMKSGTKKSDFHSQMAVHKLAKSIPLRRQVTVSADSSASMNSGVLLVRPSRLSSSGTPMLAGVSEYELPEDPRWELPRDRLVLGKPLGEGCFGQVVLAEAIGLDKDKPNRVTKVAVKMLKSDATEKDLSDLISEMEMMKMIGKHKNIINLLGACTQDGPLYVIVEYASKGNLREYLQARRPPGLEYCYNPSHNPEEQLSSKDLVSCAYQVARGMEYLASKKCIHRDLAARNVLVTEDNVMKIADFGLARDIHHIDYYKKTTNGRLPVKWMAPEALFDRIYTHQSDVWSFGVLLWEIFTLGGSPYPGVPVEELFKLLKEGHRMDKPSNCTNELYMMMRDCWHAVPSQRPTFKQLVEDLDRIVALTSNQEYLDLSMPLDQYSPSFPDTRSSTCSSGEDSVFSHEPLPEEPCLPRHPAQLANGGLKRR
Test: as above
Format: biochemical
Conditions: plate D12; inhibitor 100 uM

Row | Compound | Inhibition level, FGFR1
7 | N#C/C(=C/c1ccc(O)c(O)c1)C(=O)NCc1ccccc1 [AG 490] | 0
8 | O=c1c(-c2ccc(O)cc2)coc2cc(O)cc(O)c12 [Genistein] | 0
9 | Cn1cc(C2=C(c3cn(CCCSC(=N)N)c4ccccc34)C(=O)NC2=O)c2ccccc21 [Ro-31-8220] | 2

Molecular target: plurality of kinases (Table 5) (Homo sapiens, UniProt P16591)
Sequence (P16591 whole entry): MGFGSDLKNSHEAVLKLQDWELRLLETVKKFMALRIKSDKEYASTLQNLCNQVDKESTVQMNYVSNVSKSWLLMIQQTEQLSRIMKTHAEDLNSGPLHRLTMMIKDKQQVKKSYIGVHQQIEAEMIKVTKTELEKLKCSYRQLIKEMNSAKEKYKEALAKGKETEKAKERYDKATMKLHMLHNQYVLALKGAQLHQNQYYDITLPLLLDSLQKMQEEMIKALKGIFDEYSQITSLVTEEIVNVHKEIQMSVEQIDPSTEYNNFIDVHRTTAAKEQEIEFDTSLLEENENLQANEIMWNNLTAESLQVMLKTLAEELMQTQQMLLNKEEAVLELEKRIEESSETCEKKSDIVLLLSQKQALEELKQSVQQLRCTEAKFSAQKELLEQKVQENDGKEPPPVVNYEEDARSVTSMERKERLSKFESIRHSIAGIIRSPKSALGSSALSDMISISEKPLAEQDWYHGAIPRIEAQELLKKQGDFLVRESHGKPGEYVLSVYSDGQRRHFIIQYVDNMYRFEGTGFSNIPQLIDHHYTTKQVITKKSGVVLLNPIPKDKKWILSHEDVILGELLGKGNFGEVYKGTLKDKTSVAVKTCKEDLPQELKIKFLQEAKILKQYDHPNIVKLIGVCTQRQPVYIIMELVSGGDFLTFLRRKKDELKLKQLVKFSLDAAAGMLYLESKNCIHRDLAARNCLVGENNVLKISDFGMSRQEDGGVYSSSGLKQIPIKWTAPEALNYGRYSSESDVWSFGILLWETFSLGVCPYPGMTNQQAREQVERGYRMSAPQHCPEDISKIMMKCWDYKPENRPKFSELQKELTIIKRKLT
Test: as above
Format: biochemical
Conditions: plate H5; inhibitor 100 uM

Row | Compound | Inhibition level, FER
10 | N#C/C(=C/c1ccc(O)c(O)c1)C(=O)NCc1ccccc1 [AG 490] | 2
11 | O=c1c(-c2ccc(O)cc2)coc2cc(O)cc(O)c12 [Genistein] | 2
12 | Cn1cc(C2=C(c3cn(CCCSC(=N)N)c4ccccc34)C(=O)NC2=O)c2ccccc21 [Ro-31-8220] | 2

Molecular target: T1, plurality of kinases (Table 5) (Homo sapiens, UniProt P41743)
T1 sequence (P41743 1-596): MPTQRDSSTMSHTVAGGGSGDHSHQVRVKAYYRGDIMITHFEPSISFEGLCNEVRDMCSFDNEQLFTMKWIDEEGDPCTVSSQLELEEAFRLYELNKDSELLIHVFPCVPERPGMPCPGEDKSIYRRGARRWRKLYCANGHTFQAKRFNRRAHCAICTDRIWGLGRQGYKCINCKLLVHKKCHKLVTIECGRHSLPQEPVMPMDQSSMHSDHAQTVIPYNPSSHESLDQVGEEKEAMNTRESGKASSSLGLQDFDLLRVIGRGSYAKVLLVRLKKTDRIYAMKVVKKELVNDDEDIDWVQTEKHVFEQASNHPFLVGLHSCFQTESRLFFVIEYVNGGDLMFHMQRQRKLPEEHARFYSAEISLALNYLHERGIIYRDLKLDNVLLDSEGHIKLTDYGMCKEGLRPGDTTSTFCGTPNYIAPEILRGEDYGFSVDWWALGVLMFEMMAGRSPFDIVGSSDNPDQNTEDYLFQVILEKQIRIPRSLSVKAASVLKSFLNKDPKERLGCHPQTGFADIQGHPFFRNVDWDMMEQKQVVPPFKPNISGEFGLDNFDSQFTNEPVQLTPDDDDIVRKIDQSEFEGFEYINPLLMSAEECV
Test: as above
Format: biochemical
Conditions: plate A2; Genistein <3.7 mM

Row | Compound | Inhibition level, PRKCI
13 | O=c1c(-c2ccc(O)cc2)coc2cc(O)cc(O)c12 [Genistein] | 0

Same assay, conditions: plate A2; Ro-31-8220 90 uM

Row | Compound | Inhibition level, PRKCI
14 | Cn1cc(C2=C(c3cn(CCCSC(=N)N)c4ccccc34)C(=O)NC2=O)c2ccccc21 [Ro-31-8220] | 2

Same assay, conditions: plate A2; inhibitor 100 uM

Row | Compound | Inhibition level, PRKCI
15 | N#C/C(=C/c1ccc(O)c(O)c1)C(=O)NCc1ccccc1 [AG 490] | 2
16 | O=c1c(-c2ccc(O)cc2)coc2cc(O)cc(O)c12 [Genistein] | 2
17 | Cn1cc(C2=C(c3cn(CCCSC(=N)N)c4ccccc34)C(=O)NC2=O)c2ccccc21 [Ro-31-8220] | 0

Molecular target: T2, plurality of kinases (Table 5) (Homo sapiens, UniProt P54762)
T2 sequence (P54762 18-984): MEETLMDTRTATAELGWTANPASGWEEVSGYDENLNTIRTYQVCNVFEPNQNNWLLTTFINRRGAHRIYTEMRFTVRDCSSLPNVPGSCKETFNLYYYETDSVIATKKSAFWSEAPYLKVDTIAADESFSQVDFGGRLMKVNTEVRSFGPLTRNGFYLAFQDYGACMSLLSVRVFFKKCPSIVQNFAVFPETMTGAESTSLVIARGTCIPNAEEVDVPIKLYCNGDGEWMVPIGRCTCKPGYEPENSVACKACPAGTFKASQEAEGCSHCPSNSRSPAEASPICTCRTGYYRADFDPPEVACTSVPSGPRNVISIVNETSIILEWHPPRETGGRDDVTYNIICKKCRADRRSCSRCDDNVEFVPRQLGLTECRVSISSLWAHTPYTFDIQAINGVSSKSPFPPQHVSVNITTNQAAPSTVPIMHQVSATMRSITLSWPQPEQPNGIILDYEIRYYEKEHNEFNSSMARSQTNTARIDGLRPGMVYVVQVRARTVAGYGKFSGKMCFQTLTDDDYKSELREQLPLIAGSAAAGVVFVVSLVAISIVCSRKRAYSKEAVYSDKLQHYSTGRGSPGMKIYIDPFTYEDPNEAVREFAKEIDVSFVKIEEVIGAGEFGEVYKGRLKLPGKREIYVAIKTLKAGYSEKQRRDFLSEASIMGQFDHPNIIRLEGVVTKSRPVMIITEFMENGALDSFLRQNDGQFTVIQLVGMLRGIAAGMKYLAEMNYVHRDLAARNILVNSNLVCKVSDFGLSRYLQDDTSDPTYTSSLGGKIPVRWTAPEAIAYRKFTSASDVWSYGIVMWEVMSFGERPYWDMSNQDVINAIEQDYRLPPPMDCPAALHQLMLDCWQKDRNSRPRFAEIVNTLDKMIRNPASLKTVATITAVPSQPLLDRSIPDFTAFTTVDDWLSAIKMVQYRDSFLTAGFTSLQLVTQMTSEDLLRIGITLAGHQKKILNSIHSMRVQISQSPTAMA
Test: as above
Format: biochemical
Conditions: not given

Row | Compound | Inhibition level, EPHB1
18 | CN[C@@H]1C[C@H]2O[C@@](C)([C@@H]1OC)n1c3ccccc3c3c4c(c5c6ccccc6n2c5c31)C(=O)NC4 [Staurosporine] | 2

Same assay, conditions: plate B8; Genistein, conc. not given

Row | Compound | Inhibition level, EPHB1
19 | O=c1c(-c2ccc(O)cc2)coc2cc(O)cc(O)c12 [Genistein] | 0

Same assay, conditions: plate B8; Ro-31-8220, conc. not given

Row | Compound | Inhibition level, EPHB1
20 | Cn1cc(C2=C(c3cn(CCCSC(=N)N)c4ccccc34)C(=O)NC2=O)c2ccccc21 [Ro-31-8220] | 2

Same assay, conditions: plate B8; inhibitor 100 uM

Row | Compound | Inhibition level, EPHB1
21 | N#C/C(=C/c1ccc(O)c(O)c1)C(=O)NCc1ccccc1 [AG 490] | 0
22 | O=c1c(-c2ccc(O)cc2)coc2cc(O)cc(O)c12 [Genistein] | 1
23 | Cn1cc(C2=C(c3cn(CCCSC(=N)N)c4ccccc34)C(=O)NC2=O)c2ccccc21 [Ro-31-8220] | 0

Molecular target: plurality of kinases (Table 5) (Homo sapiens, UniProt Q13627)
Test: as above
Format: biochemical
Conditions: plate G6; Genistein <3.7 mM

Row | Compound | Inhibition level, DYRK1A
24 | O=c1c(-c2ccc(O)cc2)coc2cc(O)cc(O)c12 [Genistein] | 1

Same assay, conditions: plate G6; Ro-31-8220 90 uM

Row | Compound | Inhibition level, DYRK1A
25 | Cn1cc(C2=C(c3cn(CCCSC(=N)N)c4ccccc34)C(=O)NC2=O)c2ccccc21 [Ro-31-8220] | 0

Same assay, conditions: plate G6; inhibitor 100 uM

Row | Compound | Inhibition level, DYRK1A
26 | N#C/C(=C/c1ccc(O)c(O)c1)C(=O)NCc1ccccc1 [AG 490] | 2
27 | O=c1c(-c2ccc(O)cc2)coc2cc(O)cc(O)c12 [Genistein] | 2
28 | Cn1cc(C2=C(c3cn(CCCSC(=N)N)c4ccccc34)C(=O)NC2=O)c2ccccc21 [Ro-31-8220] | 2

Molecular target: plurality of kinases (Table 5) (Homo sapiens, UniProt Q86UE8)
Sequence (Q86UE8 whole entry): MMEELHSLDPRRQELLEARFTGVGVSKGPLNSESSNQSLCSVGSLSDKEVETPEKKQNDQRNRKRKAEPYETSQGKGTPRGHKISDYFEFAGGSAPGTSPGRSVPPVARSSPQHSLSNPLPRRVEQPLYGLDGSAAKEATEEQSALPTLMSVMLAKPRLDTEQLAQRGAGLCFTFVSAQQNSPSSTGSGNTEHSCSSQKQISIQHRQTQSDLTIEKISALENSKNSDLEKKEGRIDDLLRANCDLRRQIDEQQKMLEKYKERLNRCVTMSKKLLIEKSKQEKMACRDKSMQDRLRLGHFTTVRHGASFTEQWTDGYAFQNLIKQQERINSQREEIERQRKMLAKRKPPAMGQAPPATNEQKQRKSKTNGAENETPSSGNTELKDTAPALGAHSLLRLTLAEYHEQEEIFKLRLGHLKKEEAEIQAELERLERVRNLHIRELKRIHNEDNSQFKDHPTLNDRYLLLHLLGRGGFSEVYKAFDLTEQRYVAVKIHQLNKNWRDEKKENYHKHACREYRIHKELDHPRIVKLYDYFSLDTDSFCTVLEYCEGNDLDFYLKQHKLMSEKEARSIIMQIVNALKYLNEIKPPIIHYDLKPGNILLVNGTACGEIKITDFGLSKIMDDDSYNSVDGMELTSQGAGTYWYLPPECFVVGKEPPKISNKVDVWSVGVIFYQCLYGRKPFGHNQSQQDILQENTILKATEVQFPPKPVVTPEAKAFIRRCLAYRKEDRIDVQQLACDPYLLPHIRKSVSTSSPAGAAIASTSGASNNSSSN
Test: as above
Format: biochemical
Conditions: plate C8; Genistein <3.7 mM

Row | Compound | Inhibition level, TLK2
29 | O=c1c(-c2ccc(O)cc2)coc2cc(O)cc(O)c12 [Genistein] | 0

Same assay, conditions: plate C8; Ro-31-8220 90 uM

Row | Compound | Inhibition level, TLK2
30 | Cn1cc(C2=C(c3cn(CCCSC(=N)N)c4ccccc34)C(=O)NC2=O)c2ccccc21 [Ro-31-8220] | 2

Same assay, conditions: plate C8; Staurosporine 21.5 uM

Row | Compound | Inhibition level, TLK2
31 | CN[C@@H]1C[C@H]2O[C@@](C)([C@@H]1OC)n1c3ccccc3c3c4c(c5c6ccccc6n2c5c31)C(=O)NC4 [Staurosporine] | 2

Same assay, conditions: plate C8; inhibitor 100 uM

Row | Compound | Inhibition level, TLK2
32 | N#C/C(=C/c1ccc(O)c(O)c1)C(=O)NCc1ccccc1 [AG 490] | 2
33 | O=c1c(-c2ccc(O)cc2)coc2cc(O)cc(O)c12 [Genistein] | 2
34 | Cn1cc(C2=C(c3cn(CCCSC(=N)N)c4ccccc34)C(=O)NC2=O)c2ccccc21 [Ro-31-8220] | 1

Molecular target: T3, plurality of kinases (Table 5) (Homo sapiens, UniProt Q9Y616)
T3 sequence (Q9Y616 1-596): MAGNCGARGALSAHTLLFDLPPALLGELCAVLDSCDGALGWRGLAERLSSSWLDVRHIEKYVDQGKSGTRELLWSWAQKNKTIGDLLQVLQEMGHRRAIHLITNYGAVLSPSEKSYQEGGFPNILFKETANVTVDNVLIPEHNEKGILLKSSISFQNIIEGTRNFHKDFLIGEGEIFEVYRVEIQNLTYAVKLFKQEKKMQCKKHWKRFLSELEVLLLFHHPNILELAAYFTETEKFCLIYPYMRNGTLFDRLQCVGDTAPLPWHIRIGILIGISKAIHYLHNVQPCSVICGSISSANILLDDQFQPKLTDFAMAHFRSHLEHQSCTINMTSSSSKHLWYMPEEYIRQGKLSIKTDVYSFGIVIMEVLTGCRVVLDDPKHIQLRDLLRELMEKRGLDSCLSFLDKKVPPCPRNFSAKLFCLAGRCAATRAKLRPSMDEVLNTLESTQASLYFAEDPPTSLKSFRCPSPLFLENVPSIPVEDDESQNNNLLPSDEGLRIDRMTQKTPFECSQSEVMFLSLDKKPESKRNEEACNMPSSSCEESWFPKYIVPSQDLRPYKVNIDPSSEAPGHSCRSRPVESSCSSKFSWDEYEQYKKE
Test: as above
Format: biochemical
Conditions: plate C9; inhibitor 100 uM

Row | Compound | Inhibition level, IRAK3
35 | N#C/C(=C/c1ccc(O)c(O)c1)C(=O)NCc1ccccc1 [AG 490] | 0
36 | O=c1c(-c2ccc(O)cc2)coc2cc(O)cc(O)c12 [Genistein] | 2
37 | Cn1cc(C2=C(c3cn(CCCSC(=N)N)c4ccccc34)C(=O)NC2=O)c2ccccc21 [Ro-31-8220] | 2

Tested on: 39 kinases (Table 4)
Test: not given
Conditions: known general specificities of the inhibitors, Table 3; cited from earlier work

Row | Compound | General Specificity (known)
38 | N#C/C(=C/c1ccc(O)c(O)c1)C(=O)NCc1ccccc1 [AG 490] | tyrosine
39 | O=c1c(-c2ccc(O)cc2)coc2cc(O)cc(O)c12 [Genistein] | tyrosine
40 | Cn1cc(C2=C(c3cn(CCCSC(=N)N)c4ccccc34)C(=O)NC2=O)c2ccccc21 [Ro-31-8220] | serine/threonine
41 | CN[C@@H]1C[C@H]2O[C@@](C)([C@@H]1OC)n1c3ccccc3c3c4c(c5c6ccccc6n2c5c31)C(=O)NC4 [Staurosporine] | broad
